Measurements published in the supplement of paper PMC11208160.

Experiment: recombinant UMI read abundance after kanamycin selection (control-corrected) (log10(CPM+1)); higher = more efficient recombination; extreme values may be limits of the assay; sequences stand for … in AGTGCAGAGAAAATCGGCCAGTTTTCTCTGCCTGCAGTCCGCATGCCGTGGGACCCCTTGGGTTCTAACCTGTTGCCTAGATTTATGCAGCGGACTGCCTTTCTCCCAAAGTGATAAACCGG…AGGTTGGTTTCACT; site = the 11-nt donor
In short: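 For the IS621 bridge recombinase, a pooled Escherichia coli screen tested donor and donor-binding-loop pairs. Cells received the pair library together with a target plasmid encoding a fixed target and T7-inducible recombinase, then went onto IPTG (0.07 mM) plus kanamycin or unselected plates in duplicate. After PCR across the donor–target junction and sequencing, recombinant UMI counts were normalized to CPM, averaged, and scaled by control-derived factors. Each value is given as log10(CPM+1).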
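Note: IS621 bridge recombinase in Escherichia coli cells against a fixed T5 target plasmid.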

Sequence | recombinant UMI read abundance (log10)
TGTTAGACATGGACCGGTTTTCCCGGTAATCCGTATTTGAG (site GGTTAGACTCT) | 0.0119
TGTTAGACATGGACCGGTTTTCCCGGTAATCCGTATTTGAG (site TGTTAGACTCT) | 0.233
TGTTCCGCATGGACCGGTTTTCCCGGTAATCCGTATTTGTC (site TGTTCCGCTGA) | 1.06
TGTTGAGCATGGACCGGTTTTCCCGGTAATCCGTATTTGCA (site TGTTGAGCTTG) | 0.98
TGTTTAGCATGGACCGGTTTTCCCGGTAATCCGTATTTGGG (site TGTTTAGCTCC) | 0.00333
TTAAAGCCATGGACCGGTTTTCCCGGTAATCCGTATTTGGC (site TTAAAGCCTGC) | 0
TTAATATCATGGACCGGTTTTCCCGGTAATCCGTATTTGAC (site CTAGTATCTGT) | 0
TTAATATCATGGACCGGTTTTCCCGGTAATCCGTATTTGAC (site TTAATATCTGT) | 1.18
TTACAAACATGGACCGGTTTTCCCGGTAATCCGTATTTGAG (site TTACAAACTCT) | 2.21
TTACCCACATGGACCGGTTTTCCCGGTAATCCGTATTTGTG (site TTACCCACTCA) | 0.0352
TTACGCTCATGGACCGGTTTTCCCGGTAATCCGTATTTGAT (site TTACGCTCTAT) | 1.93
TTACGTGCATGGACCGGTTTTCCCGGTAATCCGTATTTGTA (site TTACGTGCTTA) | 1.51
TTACGTTCATGGACCGGTTTTCCCGGTAATCCGTATTTGAG (site TTACGTTCTCT) | 1.76
TTACTGTCATGGACCGGTTTTCCCGGTAATCCGTATTTGGA (site TTACTGTCTTC) | 1.38
TTAGAACCATGGACCGGTTTTCCCGGTAATCCGTATTTGCC (site TTAGAACCTGG) | 0
TTAGATCCATGGACCGGTTTTCCCGGTAATCCGTATTTGAG (site TTAGATCCTCT) | 0.358
TTAGCAACATGGACCGGTTTTCCCGGTAATCCGTATTTGAG (site TTAGCAACTCT) | 0.835
TTAGCGGCATGGACCGGTTTTCCCGGTAATCCGTATTTGTG (site TTAGCAGCTCA) | 0.356
TTAGCGGCATGGACCGGTTTTCCCGGTAATCCGTATTTGTG (site TTAGCCGCTCA) | 0.00441
TTAGCGGCATGGACCGGTTTTCCCGGTAATCCGTATTTGTG (site TTAGCGGCTCA) | 1.51
TTAGCGGCATGGACCGGTTTTCCCGGTAATCCGTATTTGTG (site TTAGCTGCTCA) | 0.0387
TTAGCTGCATGGACCGGTTTTCCCGGTAATCCGTATTTGTT (site TTAGCTGCTAA) | 1.08
TTAGCTGCATGGACCGGTTTTCCCGGTAATCCGTATTTGTT (site TTAGCTGCTCA) | 0.187
TTAGCTGCATGGACCGGTTTTCCCGGTAATCCGTATTTGTT (site TTAGCTGCTGA) | 0.423
TTAGCTGCATGGACCGGTTTTCCCGGTAATCCGTATTTGTT (site TTAGCTGCTTA) | 0.0119

Sequence | recombinant UMI read abundance (log10)
TTAGGACCATGGACCGGTTTTCCCGGTAATCCGTATTTGCA (site TTAGGACCTTG) | 0.00659
TTAGGTACATGGACCGGTTTTCCCGGTAATCCGTATTTGAC (site ATAGGTACTGT) | 0.0067
TTAGGTACATGGACCGGTTTTCCCGGTAATCCGTATTTGAC (site CTAGGTACTGT) | 0
TTAGGTACATGGACCGGTTTTCCCGGTAATCCGTATTTGAC (site GTAGGTACTGT) | 0
TTAGGTACATGGACCGGTTTTCCCGGTAATCCGTATTTGAC (site TTAGGTACTGT) | 1.98
TTAGTATCATGGACCGGTTTTCCCGGTAATCCGTATTTGTC (site CTAGTATCTGT) | 0
TTAGTATCATGGACCGGTTTTCCCGGTAATCCGTATTTGTC (site TTAGTATCTGA) | 1.77
TTATAAGCATGGACCGGTTTTCCCGGTAATCCGTATTTGAG (site TTATAAGCTCT) | 1.65
TTATACCCATGGACCGGTTTTCCCGGTAATCCGTATTTGAG (site TTATACCCTCT) | 0.00206
TTATCATCATGGACCGGTTTTCCCGGTAATCCGTATTTGCT (site CGATCATCTAG) | 0.595
TTATCATCATGGACCGGTTTTCCCGGTAATCCGTATTTGCT (site TTATCATCTAG) | 1.98
TTATGAGCATGGACCGGTTTTCCCGGTAATCCGTATTTGGG (site TAATGAGCTCC) | 0.0152
TTATGAGCATGGACCGGTTTTCCCGGTAATCCGTATTTGGG (site TCATGAGCTCC) | 0.0145
TTATGAGCATGGACCGGTTTTCCCGGTAATCCGTATTTGGG (site TGATGAGCTCC) | 0.0171
TTATGAGCATGGACCGGTTTTCCCGGTAATCCGTATTTGGG (site TTATGAGCTCC) | 0.0057
TTATGCGCATGGACCGGTTTTCCCGGTAATCCGTATTTGCC (site TTATGCGCTGG) | 1.93
TTATTACCATGGACCGGTTTTCCCGGTAATCCGTATTTGGG (site TTATTACCTCC) | 0.0164
TTATTTACATGGACCGGTTTTCCCGGTAATCCGTATTTGAA (site TTATTTACTTT) | 0.00385
TTCAACCCATGGACCGGTTTTCCCGGTAATCCGTATTTGGA (site TTCAACCCTTC) | 0
TTCAACTCATGGACCGGTTTTCCCGGTAATCCGTATTTGTC (site TTCAACTCTGA) | 0.222
TTCAATTCATGGACCGGTTTTCCCGGTAATCCGTATTTGCC (site TACAATTCTGG) | 0
TTCAATTCATGGACCGGTTTTCCCGGTAATCCGTATTTGCC (site TCCAATTCTGG) | 0
TTCAATTCATGGACCGGTTTTCCCGGTAATCCGTATTTGCC (site TGCAATTCTGG) | 0
TTCAATTCATGGACCGGTTTTCCCGGTAATCCGTATTTGCC (site TTCAATTCTGG) | 0
TTCACGCCATGGACCGGTTTTCCCGGTAATCCGTATTTGAC (site TTCACGCCTGT) | 0

Sequence | recombinant UMI read abundance (log10)
TTCACTTCATGGACCGGTTTTCCCGGTAATCCGTATTTGTG (site TTCACTTCTCA) | 0.00654
TTCAGCTCATGGACCGGTTTTCCCGGTAATCCGTATTTGTT (site TTCAGCTCTAA) | 0.00312
TTCATGACATGGACCGGTTTTCCCGGTAATCCGTATTTGCG (site TTCATGACTCG) | 0
TTCCCGCCATGGACCGGTTTTCCCGGTAATCCGTATTTGCT (site TTCCCGCCTAG) | 0.552
TTCCTCACATGGACCGGTTTTCCCGGTAATCCGTATTTGCT (site TTCCTCACTAG) | 0.293
TTCGAGACATGGACCGGTTTTCCCGGTAATCCGTATTTGCA (site TTCGAGACTTG) | 0.725
TTCGCCTCATGGACCGGTTTTCCCGGTAATCCGTATTTGAT (site TTCGCCTCTAT) | 0.521
TTCGCGACATGGACCGGTTTTCCCGGTAATCCGTATTTGAA (site TTCGCGACTTT) | 0.0402
TTCGCTTCATGGACCGGTTTTCCCGGTAATCCGTATTTGTG (site TTCGCTTCTCA) | 0
TTCGGCACATGGACCGGTTTTCCCGGTAATCCGTATTTGAG (site TTCGGCACTCT) | 0.00333
TTCGGGGCATGGACCGGTTTTCCCGGTAATCCGTATTTGTC (site TTCGGGGCTGA) | 0
TTCGTCCCATGGACCGGTTTTCCCGGTAATCCGTATTTGTC (site TTCGTCCCTGA) | 0
TTCTACACATGGACCGGTTTTCCCGGTAATCCGTATTTGCT (site ATCTACACTAG) | 0.34
TTCTACACATGGACCGGTTTTCCCGGTAATCCGTATTTGCT (site CTCTACACTAG) | 1.12
TTCTACACATGGACCGGTTTTCCCGGTAATCCGTATTTGCT (site GTCTACACTAG) | 0.569
TTCTACACATGGACCGGTTTTCCCGGTAATCCGTATTTGCT (site TTCTACACTAG) | 1.16
TTCTAGGCATGGACCGGTTTTCCCGGTAATCCGTATTTGGT (site TACTAGGCTAC) | 0.00535
TTCTAGGCATGGACCGGTTTTCCCGGTAATCCGTATTTGGT (site TCCTAGGCTAC) | 0.0191
TTCTAGGCATGGACCGGTTTTCCCGGTAATCCGTATTTGGT (site TGCTAGGCTAC) | 0.0112
TTCTAGGCATGGACCGGTTTTCCCGGTAATCCGTATTTGGT (site TTCTAGGCTAC) | 0.0102
TTCTAGTCATGGACCGGTTTTCCCGGTAATCCGTATTTGAC (site TTCTAGTCTGT) | 0
TTCTCCGCATGGACCGGTTTTCCCGGTAATCCGTATTTGAA (site TTCTCCGCTTT) | 0.0825
TTCTCCTCATGGACCGGTTTTCCCGGTAATCCGTATTTGTT (site TTCTCCTCTAA) | 0.151
TTCTCTTCATGGACCGGTTTTCCCGGTAATCCGTATTTGTG (site TTCTCTTCTCA) | 0.00971
TTCTGGGCATGGACCGGTTTTCCCGGTAATCCGTATTTGCA (site TTCTGGGCTTG) | 0.345
